In PubChem BioAssay (NCI):
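GI50 is the concentration that inhibits growth by half. TGI marks complete inhibition of growth.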

Legend:
Experiment in all cases: inhibition of tumour cell growth, NCI panel, 384-well format
[1] = tested on: MALME-3M melanoma
[2] = tested on: SW-620 colon
[3] = tested on: TK-10 renal
[4] = tested on: SF-539 CNS
[5] = tested on: 786-0 renal
[6] = tested on: HCC-2998 colon
[7] = tested on: A549 NSCLC
[8] = tested on: SK-MEL-5 melanoma
[9] = tested on: EKVX NSCLC
[10] = tested on: HS 578T breast
[11] = tested on: SR leukemia
[12] = tested on: NCI/ADR-RES ovarian
[13] = tested on: OVCAR-4 ovarian
[14] = tested on: MOLT-4 leukemia
[15] = tested on: U251 glioblastoma
[16] = tested on: COLO 205 colon
[17] = tested on: PC-3 prostate
[18] = tested on: IGROV1 ovarian
[19] = tested on: SNB-75 CNS
[20] = tested on: SK-OV-3 ovarian
[21] = tested on: SF-295 CNS
[22] = tested on: UO-31 renal
[23] = tested on: LOX IMVI melanoma
[24] = tested on: NCI-H226 lung
[25] = tested on: CCRF-CEM leukemia
[26] = tested on: SK-MEL-28 melanoma
[27] = tested on: NCI-H460 NSCLC
[28] = tested on: T-47D breast
[29] = tested on: KM12 colon
[30] = tested on: OVCAR-8 ovarian
[31] = tested on: RPMI-8226 leukemia
[32] = tested on: ACHN renal
[33] = tested on: K-562 leukemia
[34] = tested on: HT29 colon
[35] = tested on: HCT-15 colon
[36] = tested on: NCI-H23 lung
[37] = tested on: SNB-19 CNS
[38] = tested on: NCI-H522 lung
[39] = tested on: MCF7 breast
[40] = tested on: MDA-MB-435 melanoma
[41] = tested on: MDA-MB-468 breast
[42] = tested on: HOP-62 NSCLC
[43] = tested on: OVCAR-3 ovarian
[44] = tested on: HOP-92 NSCLC
[45] = tested on: A498 renal
[46] = tested on: DU-145 prostate
[47] = tested on: NCI-H322M lung
[48] = tested on: UACC-257 melanoma
[49] = tested on: HL-60(TB) leukemia
[50] = tested on: SF-268 CNS
[51] = tested on: BT-549 breast
[52] = tested on: CAKI-1 renal
[53] = tested on: M14 melanoma
[54] = tested on: OVCAR-5 ovarian
[55] = tested on: RXF 393 renal
[56] = tested on: MDA-MB-231 breast
[57] = tested on: UACC-62 melanoma
[58] = tested on: SN12C renal
[59] = tested on: SK-MEL-2 melanoma

## COc1cc(CCc2cc(NC(=O)c3ccc(N4C[C@@H](C)N[C@@H](C)C4)cc3)n[nH]2)cc(OC)c1
[1]
  GI50: 2.03 µM
  TGI: 4.37 µM
[2]
  GI50: 4.21 µM
  TGI: 15.3 µM
[3]
  GI50: 11.8 µM
  TGI: 24.2 µM
[4]
  GI50: 1.69 µM
  TGI: 4.18 µM
[5]
  GI50: 3.07 µM
  TGI: 9.35 µM
[6]
  GI50: 3.82 µM
  TGI: 12.8 µM
[7]
  GI50: 4.71 µM
  TGI: 15.7 µM
[8]
  GI50: 1.59 µM
  TGI: 2.95 µM
[9]
  GI50: 10.4 µM
  TGI: 22.2 µM
[10]
  GI50: 2.19 µM
  TGI: 4.58 µM
[11]
  GI50: 1.8 µM
  TGI: 3.21 µM
[12]
  GI50: 17.5 µM
  TGI: 31.5 µM
[13]
  GI50: 6.69 µM
  TGI: 19.7 µM
[14]
  GI50: 1.86 µM
  TGI: 3.36 µM
[15]
  GI50: 6.52 µM
  TGI: 19 µM
[16]
  GI50: 2.31 µM
  TGI: 5.36 µM
[17]
  GI50: 4.91 µM
  TGI: 16.1 µM
[18]
  GI50: 3.8 µM
  TGI: 14 µM
[19]
  GI50: 4.55 µM
  TGI: 17.1 µM
[20]
  GI50: 2.99 µM
  TGI: 11 µM
[21]
  GI50: 4.91 µM
  TGI: 15.5 µM
[22]
  GI50: 11.1 µM
  TGI: 23.9 µM
[23]
  GI50: 1.9 µM
  TGI: 3.58 µM
[24]
  GI50: 1.49 µM
  TGI: 10.9 µM
[25]
  GI50: 2.33 µM
  TGI: 4.13 µM
[26]
  GI50: 2.33 µM
  TGI: 5.37 µM
[27]
  GI50: 3.39 µM
  TGI: 10.9 µM
[28]
  GI50: 11.1 µM
  TGI: 23.2 µM
[29]
  GI50: 0.0516 µM
  TGI: 1.46 µM
[30]
  GI50: 9.65 µM
  TGI: 21.5 µM
[31]
  GI50: 2.26 µM
  TGI: 4.41 µM
[32]
  GI50: 4.46 µM
  TGI: 15.9 µM
[33]
  GI50: 2.5 µM
  TGI: 4.83 µM
[34]
  GI50: 1.85 µM
  TGI: 3.72 µM
[35]
  GI50: 3.39 µM
  TGI: 11.2 µM
[36]
  GI50: 2.42 µM
  TGI: 6.77 µM
[37]
  GI50: 15.3 µM
  TGI: 28.8 µM
[38]
  GI50: 5.63 µM
  TGI: 17.9 µM
[39]
  GI50: 3.06 µM
  TGI: 10.9 µM
[40]
  GI50: 3.26 µM
  TGI: 10.8 µM
[41]
  GI50: 3.46 µM
  TGI: 6.61 µM
[42]
  GI50: 5.65 µM
  TGI: 17.3 µM
[43]
  GI50: 11.9 µM
  TGI: 24.3 µM
[44]
  GI50: 3.61 µM
  TGI: 15 µM
[45]
  GI50: 3.66 µM
  TGI: 13.7 µM
[46]
  GI50: 5.91 µM
  TGI: 18 µM
[47]
  GI50: 5.5 µM
  TGI: 17.4 µM
[48]
  GI50: 1.53 µM
  TGI: 2.9 µM
[49]
  GI50: 1.83 µM
  TGI: 3.28 µM
[50]
  GI50: 5.42 µM
  TGI: 18.2 µM
[51]
  GI50: 1.95 µM
  TGI: 8.13 µM
[52]
  GI50: 3.65 µM
  TGI: 14 µM
[53]
  GI50: 1.71 µM
  TGI: 3.35 µM
[54]
  GI50: 3.22 µM
  TGI: 9.57 µM
[55]
  GI50: 2.13 µM
  TGI: 5.28 µM
[56]
  GI50: 5.81 µM
  TGI: 18.3 µM
[57]
  GI50: 3.07 µM
  TGI: 10.7 µM
[58]
  GI50: 2.54 µM
  TGI: 10.1 µM

## COc1ccc(N(C)c2nc(C)nc3ccccc23)cc1
[1]
  GI50: < 0.01 µM
  TGI: < 0.01 µM
[2]
  GI50: < 0.01 µM
  TGI: > 100 µM
[3]
  GI50: < 0.01 µM
  TGI: 90.3 µM
[4]
  GI50: < 0.01 µM
  TGI: < 0.01 µM
[6]
  GI50: < 0.01 µM
  TGI: < 0.01 µM
[8]
  GI50: < 0.01 µM
  TGI: < 0.01 µM
[9]
  GI50: < 0.01 µM
  TGI: 25.1 µM
[10]
  GI50: < 0.01 µM
  TGI: < 0.01 µM
[11]
  GI50: < 0.01 µM
  TGI: < 0.01 µM
[12]
  GI50: < 0.01 µM
  TGI: < 0.01 µM
[13]
  GI50: < 0.01 µM
  TGI: 2.08 µM
[14]
  GI50: < 0.01 µM
  TGI: < 0.01 µM
[15]
  GI50: < 0.01 µM
  TGI: < 0.01 µM
[16]
  GI50: < 0.01 µM
  TGI: < 0.01 µM
[17]
  GI50: < 0.01 µM
  TGI: < 0.01 µM
[18]
  GI50: < 0.01 µM
  TGI: > 100 µM
[19]
  GI50: < 0.01 µM
  TGI: < 0.01 µM
[20]
  GI50: < 0.01 µM
  TGI: < 0.01 µM
[24]
  GI50: < 0.01 µM
  TGI: < 0.01 µM
[25]
  GI50: < 0.01 µM
  TGI: < 0.01 µM
[26]
  GI50: < 0.01 µM
  TGI: < 0.01 µM
[27]
  GI50: < 0.01 µM
  TGI: < 0.01 µM
[28]
  GI50: < 0.01 µM
  TGI: 55.7 µM
[29]
  GI50: < 0.01 µM
  TGI: 38.4 µM
[30]
  GI50: < 0.01 µM
  TGI: < 0.01 µM
[31]
  GI50: < 0.01 µM
  TGI: < 0.01 µM
[32]
  GI50: < 0.01 µM
  TGI: 11.4 µM
[59]
  GI50: < 0.01 µM
  TGI: < 0.01 µM
[34]
  GI50: < 0.01 µM
  TGI: 13 µM
[35]
  GI50: < 0.01 µM
  TGI: < 0.01 µM
[36]
  GI50: < 0.01 µM
  TGI: < 0.01 µM
[37]
  GI50: < 0.01 µM
  TGI: < 0.01 µM
[38]
  GI50: < 0.01 µM
  TGI: < 0.01 µM
[39]
  GI50: < 0.01 µM
  TGI: 0.184 µM
[40]
  GI50: < 0.01 µM
  TGI: < 0.01 µM
[41]
  GI50: < 0.01 µM
  TGI: < 0.01 µM
[42]
  GI50: < 0.01 µM
  TGI: 5.64 µM
[43]
  GI50: < 0.01 µM
  TGI: < 0.01 µM
[44]
  GI50: < 0.01 µM
  TGI: 0.0131 µM
[45]
  GI50: < 0.01 µM
  TGI: 35.4 µM
[46]
  GI50: < 0.01 µM
  TGI: 0.0328 µM
[47]
  GI50: < 0.01 µM
  TGI: > 100 µM
[48]
  GI50: < 0.01 µM
  TGI: 75.5 µM
[49]
  GI50: < 0.01 µM
  TGI: < 0.01 µM
[50]
  GI50: < 0.01 µM
  TGI: < 0.01 µM
[51]
  GI50: < 0.01 µM
  TGI: < 0.01 µM
[52]
  GI50: < 0.01 µM
  TGI: 0.288 µM
[53]
  GI50: < 0.01 µM
  TGI: < 0.01 µM
[54]
  GI50: < 0.01 µM
  TGI: > 100 µM
[55]
  GI50: < 0.01 µM
  TGI: < 0.01 µM
[56]
  GI50: < 0.01 µM
  TGI: 23.9 µM
[57]
  GI50: < 0.01 µM
  TGI: < 0.01 µM
[58]
  GI50: < 0.01 µM
  TGI: 46 µM
